Experimental data reported in patent US20220073496A1, “NOVEL QUINOLINE DERIVATIVE INHIBITOR” (Nanjing Transthera Biosciences Co., Ltd., priority 2018, published 2022).

Assays:
Tyro-3 (h) = molecular target: T1, Tyro-3 (h) (Homo sapiens, UniProt Q06418); assay: Enzymatic activity test, Tyro-3 (h); format: biochemical; conditions: 10 μM [γ-33P]-ATP, 40 minutes, room temperature
T1 construct: purchased
T1 sequence (Q06418 41-890): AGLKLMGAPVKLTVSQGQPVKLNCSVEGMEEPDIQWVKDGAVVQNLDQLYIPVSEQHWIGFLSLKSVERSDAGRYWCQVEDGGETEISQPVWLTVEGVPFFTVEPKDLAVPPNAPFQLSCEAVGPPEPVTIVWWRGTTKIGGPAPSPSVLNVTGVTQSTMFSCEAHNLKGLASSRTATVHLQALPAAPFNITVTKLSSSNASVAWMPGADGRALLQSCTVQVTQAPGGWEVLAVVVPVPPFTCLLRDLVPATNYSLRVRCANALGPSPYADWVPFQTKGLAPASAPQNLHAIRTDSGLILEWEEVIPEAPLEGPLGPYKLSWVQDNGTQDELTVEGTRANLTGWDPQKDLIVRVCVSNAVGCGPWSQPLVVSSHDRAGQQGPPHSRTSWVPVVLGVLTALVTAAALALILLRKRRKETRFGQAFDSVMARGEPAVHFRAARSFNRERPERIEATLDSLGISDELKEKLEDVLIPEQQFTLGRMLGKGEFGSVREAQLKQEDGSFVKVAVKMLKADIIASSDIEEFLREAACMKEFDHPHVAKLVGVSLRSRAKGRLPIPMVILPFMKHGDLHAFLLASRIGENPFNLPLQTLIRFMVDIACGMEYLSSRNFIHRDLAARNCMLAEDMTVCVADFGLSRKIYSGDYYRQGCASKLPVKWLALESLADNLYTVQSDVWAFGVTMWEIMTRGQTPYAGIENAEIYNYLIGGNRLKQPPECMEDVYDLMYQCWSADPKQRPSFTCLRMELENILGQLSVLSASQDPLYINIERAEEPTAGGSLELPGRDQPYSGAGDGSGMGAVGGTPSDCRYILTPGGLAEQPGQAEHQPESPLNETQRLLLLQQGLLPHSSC
Method: Assay 3: Enzymatic Activity Test of the Compounds of the Present Invention
Test substances: the compounds of the present invention, wherein the structures and preparations thereof were as described above.
(1) Preparation of the Compound Stock Solution
The compound was dissolved in 100% DMSO to prepare a stock solution with a maximum concentration of 500 μM.
(2) Preparation of the Compound Working Solution
The compound stock solution was diluted to final concentrations of 500, 150, 50, 15, 5, 1.5, 0.5, 0.15 and 0.05 μM to become the compound working solutions (50×).
(3) Preparation of Different Enzyme Reaction Solutions
The Tyro3 (h) enzyme was dissolved in 8 mM MOPS (pH 7.0), 0.2 mM EDTA, 1 mM MnCl2, and 250 μM KVEKIGEGTYGVVYK to prepare an enzyme solution having a final concentration of 38 nM. The enzymatic reaction was activated by using 10 mM magnesium acetate and 10 μM [γ-^33P]-ATP to form an Mg/ATP mixed solution.
In a 384-well plate, the compound working solution was added to final concentrations of 10000, 3000, 1000, 300, 100, 30, 10, 3, and 1 nM. Then different enzyme reaction solutions prepared according to the above conditions were added. The incubation was carried out for 40 minutes at room temperature. The test was terminated by the addition of a 0.5% phosphoric acid solution. 10 μL of the reaction solution was taken and dropped to the P30 filter paper. The filter paper was washed 4 times with 0.425% phosphoric acid solution and once with methanol, and then placed on a scintillation counter. The […] IC50 values were calculated using GraphPad 5.0 software.

H1299 cell pAxl = molecular target: T2, H1299 cell pAxl (Homo sapiens, UniProt P30530); assay: Inhibitory activity on the cell pAxl (Western Blot); format: cell-based; conditions: H1299 cells, compound 1.1, 3.3, 10, 30 nM, hGAS6 200 ng/mL
T2 construct: endogenous in cells; host or cells: H1299
T2 sequence (P30530 26-894): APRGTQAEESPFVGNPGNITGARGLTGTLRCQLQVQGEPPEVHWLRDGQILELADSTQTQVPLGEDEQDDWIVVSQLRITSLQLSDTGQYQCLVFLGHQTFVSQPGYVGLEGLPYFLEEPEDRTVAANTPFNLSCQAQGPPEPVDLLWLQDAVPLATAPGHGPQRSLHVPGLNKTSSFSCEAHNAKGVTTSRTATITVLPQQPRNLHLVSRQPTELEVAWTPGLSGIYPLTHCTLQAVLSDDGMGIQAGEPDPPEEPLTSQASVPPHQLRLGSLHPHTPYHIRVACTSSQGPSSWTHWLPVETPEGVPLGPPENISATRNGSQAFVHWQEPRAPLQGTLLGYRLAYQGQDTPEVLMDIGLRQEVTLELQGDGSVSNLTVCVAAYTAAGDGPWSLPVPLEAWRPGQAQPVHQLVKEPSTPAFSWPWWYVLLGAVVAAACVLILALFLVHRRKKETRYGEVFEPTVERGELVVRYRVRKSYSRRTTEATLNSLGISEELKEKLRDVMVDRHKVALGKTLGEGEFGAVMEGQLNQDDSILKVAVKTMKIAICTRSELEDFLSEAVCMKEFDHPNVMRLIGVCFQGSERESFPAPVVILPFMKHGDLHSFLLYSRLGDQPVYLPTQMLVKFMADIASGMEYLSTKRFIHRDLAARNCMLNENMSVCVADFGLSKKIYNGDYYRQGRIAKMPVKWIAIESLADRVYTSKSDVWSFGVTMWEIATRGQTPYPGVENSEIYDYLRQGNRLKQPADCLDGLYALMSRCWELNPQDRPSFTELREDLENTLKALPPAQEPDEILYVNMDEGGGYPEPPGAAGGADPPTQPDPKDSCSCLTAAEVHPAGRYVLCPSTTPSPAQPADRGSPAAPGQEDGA
Method: Assay 5: Test for Inhibitory Activities of the Compounds of the Present Invention on the Cell pAxl
H1299 is a non-small cell lung cancer cell.
Test substances: the compounds of the present invention, wherein the structures thereof were as described above.
Test equipment: protein electrophoresis apparatus (manufactured by Bio Rad), transfer unit (manufactured by Bio Rad), exposure unit (manufactured by Tanon), CO2, cell incubator (manufactured by Thermo).
The H1299 cells were inoculated in a 6-well plate (containing 10% FBS 1640 medium, 5×10^5 cells per well), and adherent cells were cultivated at 37° C. in a 5% CO2 condition for 18 hours. The cells were starved overnight. Different concentrations of compounds were added. The final compound concentrations were 1.1, 3.3, 10, and 30 nM, and the final DMSO content was 1‰. The negative control wells contained the medium containing 1‰ DMSO. After incubating at 37° C. in a 5% CO2 condition for 60 minutes, hGAS6 (R&D, final concentration 200 ng/mL) was added to each well. After further incubating for 60 minutes, the cell total protein was extracted for Western Blot and the […] values were calculated using GraphPad 5.0 software. The inhibitory activity of the compound on the cell pAxl was examined.

Structure (SMILES): COc1cc2nccc(Oc3ccc(NC(=O)c4cn(C(C)C)cc(-c5ccc(C)cc5)c4=O)nc3)c2cc1OC [Compound 1, N-(5-((6,7-dimethoxyquinolin-4-yl)oxy)pyridin-2-yl)-1-isopropyl-4-oxo-5-p-tolyl-1,4-dihydropyridin-3-carboxamide]
- IC50 (Tyro-3 (h)): 29 nM
- IC50 (H1299 cell pAxl): < 1.1 nM

Structure (SMILES): COc1cc2nccc(Oc3ccc(NC(=O)c4cn(C(C)C)cc(-c5ccc(F)cc5)c4=O)nc3)c2cc1OC [Compound 14, N-(5-((6,7-dimethoxyquinolin-4-yl)oxy)pyridin-2-yl)-5-(4-fluorophenyl)-1-isopropyl-4-oxo-1,4-dihydropyridin-3-carboxamide]
- IC50 (Tyro-3 (h)): 21 nM
- IC50 (H1299 cell pAxl): < 1.1 nM

Structure (SMILES): COc1cc2nccc(Oc3ccc(NC(=O)c4nn(C(C)C)cc(-c5ccc(F)cc5)c4=O)nc3)c2cc1OC [Compound 15, N-(5-((6,7-dimethoxyquinolin-4-yl)oxy)pyridin-2-yl)-5-(4-fluorophenyl)-1-isopropyl-4-oxo-1,4-dihydropyridazine-3-carboxamide]
- IC50 (Tyro-3 (h)): 13 nM
- IC50 (H1299 cell pAxl): < 1.1 nM

Structure (SMILES): COc1cc2nccc(Oc3cnc(NC(=O)c4nn(C(C)C)cc(-c5ccc(F)cc5)c4=O)nc3)c2cc1OC [Compound 16, N-(5-((6,7-dimethoxyquinolin-4-yl)oxy)pyrimidine-2-yl)-5-(4-fluorophenyl)-1-isopropyl-4-oxo-1,4-dihydropyridazine-3-carboxamide]
- IC50 (Tyro-3 (h)): 12 nM
- IC50 (H1299 cell pAxl): < 1.1 nM

Structure (SMILES): COc1cc2nccc(Oc3cnc(NC(=O)c4cn(C(C)C)cc(-c5ccc(F)cc5)c4=O)nc3)c2cc1OC [Compound 20, N-(5-((6,7-dimethoxyquinolin-4-y)oxy)pyrimidine-2-yl)-5-(4-fluorophenyl)-1-isopropyl-4-oxo-1,4-dihydropyridin-3-carboxamide]
- IC50 (H1299 cell pAxl): < 1.1 nM

Structure (SMILES): COc1cc2nccc(Oc3ccc(NC(=O)c4nn(C(C)C)cc(-c5ccc(F)cc5)c4=O)cn3)c2cc1OC [Compound 29, N-(6-((6,7-dimethoxyquinolin-4-yl)oxy)pyridin-3-yl)-1-isopropyl-4-oxo-5-para-fluorophenyl-1,4-dihydropyridazine-3-carboxamide]
- IC50 (Tyro-3 (h)): 12 nM
- IC50 (H1299 cell pAxl): < 1.1 nM

Structure (SMILES): COc1cc2nccc(Oc3ccc(NC(=O)c4cn(C5CC5)cc(-c5ccc(F)cc5)c4=O)nc3)c2cc1OC [Compound 30, N-(5-((6,7-dimethoxyquinolin-4-yl)oxy)pyridin-2-yl)-1-cyclopropyl-4-oxo-5-para-fluorophenyl-1,4-hydropyridin-3-carboxamide]
- IC50 (Tyro-3 (h)): 16 nM
- IC50 (H1299 cell pAxl): < 1.1 nM

Structure (SMILES): COc1cc2nccc(Oc3ccc(NC(=O)c4nn(C5CC5)cc(-c5ccc(F)cc5)c4=O)nc3)c2cc1OC [Compound 31]
- IC50 (Tyro-3 (h)): 7 nM
- IC50 (H1299 cell pAxl): < 1.1 nM

Structure (SMILES): COc1cc2nccc(Oc3cnc(NC(=O)c4cn(C5CC5)cc(-c5ccc(F)cc5)c4=O)nc3)c2cc1OC [Compound 32, 1-cyclopropyl-N-(5-((6,7-dimethoxyquinolin-4-yl)oxy)pyrimidine-2-yl)-5-(4-fluorophenyl)-4-oxo-1,4-dihydropyridin-3-carboxamide]
- IC50 (Tyro-3 (h)): 11 nM
- IC50 (H1299 cell pAxl): < 1.1 nM

Structure (SMILES): COc1cc2nccc(Oc3cnc(NC(=O)c4nn(C5CC5)cc(-c5ccc(F)cc5)c4=O)nc3)c2cc1OC [Compound 33]
- IC50 (Tyro-3 (h)): 8 nM
- IC50 (H1299 cell pAxl): < 1.1 nM

Structure (SMILES): COc1cc2nccc(Oc3ncc(NC(=O)c4nn(C(C)C)cc(-c5ccc(F)cc5)c4=O)cn3)c2cc1OC [Compound 34, N-(2-((6,7-dimethoxyquinolin-4-yl)oxy)pyrimidine-5-yl)-5-para-fluorophenyl-1-isopropyl-4-oxo-1,4-dihydropyridazine-3-carboxamide]
- IC50 (Tyro-3 (h)): 7 nM
- IC50 (H1299 cell pAxl): < 1.1 nM

Structure (SMILES): COc1cc2nccc(Oc3ccc(NC(=O)c4nn(C5CC5)cc(-c5ccc(F)cc5)c4=O)cn3)c2cc1OC [Compound 36]
- IC50 (Tyro-3 (h)): 7 nM
- IC50 (H1299 cell pAxl): < 1.1 nM

Structure (SMILES): COc1cc2nccc(Oc3ncc(NC(=O)c4nn(C5CC5)cc(-c5ccc(F)cc5)c4=O)cn3)c2cc1OC [Compound 37, 1-cyclopropyl-N-(2-((6,7-dimethoxyquinolin-4-yl)oxy)pyrimidine-5-yl)-5-para-fluorophenyl-4-oxo-1,4-dihydropyridazine-3-carboxamide]
- IC50 (Tyro-3 (h)): 12 nM
- IC50 (H1299 cell pAxl): < 1.1 nM

Structure (SMILES): COc1cc2nccc(Oc3ccc(NC(=O)c4cn(C5CC5)nc(-c5ccc(F)cc5)c4=O)nc3)c2cc1OC [Compound 42, 2-cyclopropyl-N-(5--((6,7-dimethoxyquinolin-4-yl)oxy)pyridin-2-yl)-6-(4-fluorophenyl)-5-oxo-2,5-dihydropyridazine-4-carboxamide]
- IC50 (H1299 cell pAxl): 1.1 to 3.3 nM

Structure (SMILES): COc1cc2nccc(Oc3ccc(NC(=O)c4cn(C5CC5)nc(-c5ccc(F)cc5)c4=O)cn3)c2cc1OC [Compound 43, 2-cyclopropyl-N-(6-((6,7-dimethoxyquinolin-4-yl)oxy)pyridin-3-yl)-6-para-fluorophenyl-5-oxo-2,5-dihydropyridazine-4-carboxamide]
- IC50 (H1299 cell pAxl): 3.3 nM

Structure (SMILES): COc1cc2nccc(Oc3cnc(NC(=O)c4cn(C5CC5)nc(-c5ccc(F)cc5)c4=O)nc3)c2cc1OC [Compound 45, 2-cyclopropyl-N-(5-((6,7-dimethoxyquinolin-4-yl)oxy)pyrimidine-2-yl)-6-(4-fluorophenyl)-5-oxo-2,5-dihydropyridazine-4-carboxamide]
- IC50 (H1299 cell pAxl): 1.1 nM

Structure (SMILES): COc1cc2nccc(Oc3ccc(NC(=O)c4nn(C5CC5)cc(-c5ccc(C)cc5)c4=O)nc3)c2cc1OC [Compound 46, 1-cyclopropyl-N-(5-((6,7-dimethoxyquinolin-4-yl)oxy)pyridin-2-yl)-4-oxo-5-p-tolyl-1,4-dihydropyridazine-3-carboxamide]
- IC50 (H1299 cell pAxl): < 1.1 nM
